In PMC6983066, “Real-Time Optical Detection of Isoleucine in Living Cells through a Genetically-Encoded Nanosensor” (Sensors (Basel, Switzerland), 2019):
pKd: −log10 of the molar value.

Columns and labels:
[1] = test system: T1, GEII nanosensor (ECFP-LivJ-Venus); test: Specificity analysis of purified GEII nanosensor with amino acids and metal ions (Venus/ECFP FRET ratio, microplate); format: biochemical, E. coli; settings: 1 and 10 mM amino acid, purified sensor
T1 construct: His-tag (from pRSET-B); made in house; host or cells: E. coli BL21 (DE3)
Description: The FRET ratio analysis was performed in 96-well microplate reader using the excitation filter/slits (430/20 nm) and emission filters/slits for ECFP (485/20 nm), and Venus (535/25 nm) respectively. Furthermore, the sensitivity of sensor protein was tested against 10 mM of different metals ions present in the human body i.e., NaCl, CaCl2, MgCl2, and KCl.

[2] = test system: E. coli BL21(DE3) cells; test: Monitoring of isoleucine in living bacterial cells expressing GEII; format: cell-based; settings: 10 mM amino acid, 45 min
Description: For monitoring of isoleucine in bacterial cells, the E. coli BL21(DE3) containing pRSET-B-GEII were incubated for 48 h at 21 °C. For appropriate protein folding of nanosensor protein, the culture was stored in 4 °C overnight. The bacterial cells were centrifuged and the resultant pellet of the bacterial cells was resuspended in MOPS buffer (20 mM). Twenty microliter 10 mM isoleucine was added to 180 µL resuspended bacterial cell in the wells of microplate. The ratio of fluorescence emission intensities of Venus/ECFP was recorded for 45 min.

[3] = molecular target: LivJ; settings: LivJ binding protein; no reference given; cited from earlier work

SMILES	change in FRET ratio of GEII with amino acid [1]	FRET ratio change of GEII in E. coli cells [2]	pKd [3]
N[C@@H](CC(=O)O)C(=O)O [aspartic acid]	minimal		
C[C@H](N)C(=O)O [Alanine]	minimal		
NC(=O)C[C@H](N)C(=O)O [asparagine]	minimal		
NCC(=O)O [glycine]	minimal		
N[C@@H](CS)C(=O)O [Cysteine]	minimal		
NCCCC[C@H](N)C(=O)O [lysine]	minimal		
CC[C@H](C)[C@H](N)C(=O)O [Isoleucine]	maximum	maximum FRET ratio change	6.05
CSCC[C@H](N)C(=O)O [Methionine]	minimal		
N[C@@H](CCC(=O)O)C(=O)O [Glutamate]	minimal		
N=C(N)NCCC[C@H](N)C(=O)O [arginine]	minimal		
NC(=O)CC[C@H](N)C(=O)O [glutamine]	minimal		
N[C@@H](CO)C(=O)O [Serine]	minimal		
N[C@@H](Cc1c[nH]cn1)C(=O)O [histidine]	minimal		
CC(C)C[C@H](N)C(=O)O [Leucine]	only mildly		5.64
CC(C)[C@H](N)C(=O)O [Valine]	minimal		5.40
